Here are results for 16 molecules from PubChem BioAssay (NCI).

Molecules are shown by their SMILES.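 Each compound was tested at five concentrations against cells in 96-well plates for 48 hours. TGI denotes the concentration required for complete inhibition of growth.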

Among the test systems are COLO 205 colon; DMS 273 small cell lung; K-562 leukemia; OVCAR-3 ovarian; OVCAR-5 ovarian; RPMI-8226 leukemia; SF-295 CNS; SK-MEL-5 melanoma; SNB-75 CNS; M19-MEL melanoma; SR leukemia.
Holding throughout (test): growth of human tumour cells (NCI), 48 h

With `CCCn1cc2c3c(cccc31)C1C=C(C)CN(C)C1C2` (stereo not drawn), the TGI was 33.3 µM with COLO 205 colon; 47.3 µM with DMS 273 small cell lung; 22.6 µM in the test with K-562 leukemia; 52.6 µM with OVCAR-3 ovarian; 57 µM in the test on OVCAR-5 ovarian; 25.1 µM with RPMI-8226 leukemia. Also, the TGI came out at 55.2 µM in the test with SF-295 CNS, 38.3 µM in the test with SK-MEL-5 melanoma and 39.3 µM with SNB-75 CNS.

In the case of `O=[N+]([O-])c1ccc(-c2csc(=[N+]3CCCCC3)s2)cc1`, the TGI in the test on COLO 205 colon is 5.58 µM; with DMS 273 small cell lung, over 100 µM; in the test on K-562 leukemia it was over 100 µM; with M19-MEL melanoma, over 45.9 µM; with OVCAR-3 ovarian it was over 100 µM; in the test on OVCAR-5 ovarian, 62.6 µM. For the same molecule, the TGI in the test on RPMI-8226 leukemia was over 100 µM; in the test with SF-295 CNS, over 62.5 µM; in the test on SK-MEL-5 melanoma, 17.8 µM; with SNB-75 CNS, over 26.5 µM; in the test on SR leukemia, over 83.3 µM.

As to `NCCCCNCCCN1CCOC1=O`, the TGI with COLO 205 colon, in the test on K-562 leukemia, in the test on OVCAR-3 ovarian, in the test with OVCAR-5 ovarian, with RPMI-8226 leukemia and with SF-295 CNS was over 100 µM each time. Further, the TGI with SK-MEL-5 melanoma, in the test with SNB-75 CNS and with SR leukemia was over 100 µM throughout.

With `CC(C)(C)c1ccnc(N=C2N=C(Nc3cc(C(C)(C)C)ccn3)c3ccccc32)c1`, the TGI with COLO 205 colon was over 100 µM; with K-562 leukemia, over 100 µM; in the test with M19-MEL melanoma, over 100 µM; in the test with OVCAR-3 ovarian, 47.4 µM; with OVCAR-5 ovarian, over 100 µM; with SF-295 CNS, 52 µM. Moreover, the TGI with SNB-75 CNS and in the test with SR leukemia was over 100 µM throughout.

As for `CN(C)CCCNC(=O)N/N=C/c1ccccc1`, the TGI in the test with DMS 273 small cell lung, with K-562 leukemia, in the test with M19-MEL melanoma, in the test on OVCAR-3 ovarian, in the test with SF-295 CNS and in the test on SK-MEL-5 melanoma was over 100 µM in each case. This molecule had a TGI with SNB-75 CNS of over 100 µM.

Take `Cc1cc(-c2cc(C(C)(C)C)c(O)c(C(C)(C)C)c2)c(C)cc1-c1cc(C(C)(C)C)c(O)c(C(C)(C)C)c1`: the TGI in the test with COLO 205 colon, with K-562 leukemia, in the test with OVCAR-3 ovarian, with OVCAR-5 ovarian, with RPMI-8226 leukemia and in the test on SF-295 CNS was over 100 µM throughout. Further, the TGI in the test with SK-MEL-5 melanoma, with SNB-75 CNS and with SR leukemia was over 100 µM throughout.

Take `Cc1nc2c(=O)n(-c3ccccc3)c(=O)n(-c3ccccc3)c2o1`: the TGI in the test with COLO 205 colon, in the test with K-562 leukemia, in the test on OVCAR-3 ovarian, in the test with OVCAR-5 ovarian, in the test with RPMI-8226 leukemia and in the test on SF-295 CNS was over 100 µM in each case. The TGI with SK-MEL-5 melanoma, in the test with SNB-75 CNS and in the test with SR leukemia was over 100 µM throughout.

With `CC1=NN2C(=N)/C(=C/c3ccc(F)cc3)C(=O)N=C2S1`, the TGI in the test on COLO 205 colon, with K-562 leukemia, with OVCAR-3 ovarian, in the test on OVCAR-5 ovarian, with RPMI-8226 leukemia and in the test on SF-295 CNS was over 100 µM throughout. The TGI with SK-MEL-5 melanoma, in the test on SNB-75 CNS and with SR leukemia was over 100 µM in each case.

With `CN1c2ccccc2C2=C(c3ccccc3)CC[C@@H](C(=O)N3C4CC5CC[C@@]4(CS3(=O)=O)C5(C)C)[C@@H]21` (stereo partly drawn), the TGI with COLO 205 colon, in the test with K-562 leukemia, in the test on OVCAR-3 ovarian, with OVCAR-5 ovarian, in the test with RPMI-8226 leukemia and in the test on SF-295 CNS was over 100 µM throughout. The TGI with SK-MEL-5 melanoma, in the test with SNB-75 CNS and in the test with SR leukemia was over 100 µM in each case.

For `CC(=O)/C(=N\Nc1ccc(Cl)cc1)C(C)=Nc1ccc(C)cc1`, the TGI with COLO 205 colon is 43.1 µM; with K-562 leukemia it was over 100 µM; in the test with OVCAR-3 ovarian it was 84.5 µM; in the test on OVCAR-5 ovarian, over 100 µM; with RPMI-8226 leukemia it was over 100 µM; in the test on SF-295 CNS, over 100 µM. For the same molecule, the TGI in the test with SK-MEL-5 melanoma was 38.8 µM; in the test with SNB-75 CNS it was over 100 µM; with SR leukemia, over 100 µM.

For `NC(=O)c1ccc[n+](C2=C([O-])c3ccccc3C(=O)/C2=N\S(=O)(=O)c2ccccc2)c1`, the TGI with COLO 205 colon is 30.2 µM; with K-562 leukemia, over 100 µM; in the test with OVCAR-3 ovarian it was 17 µM; in the test on OVCAR-5 ovarian, 33.3 µM; in the test on RPMI-8226 leukemia, over 100 µM; in the test on SF-295 CNS it was 31.5 µM. The TGI is 21.3 µM with SK-MEL-5 melanoma, 28.1 µM with SNB-75 CNS and over 100 µM in the test with SR leukemia.

`Cc1cc(S(=O)(=O)N=C2Nc3cccc4cccc(c34)N2)c(S)cc1Cl`: the TGI in the test with COLO 205 colon, in the test on K-562 leukemia, in the test on OVCAR-3 ovarian, with OVCAR-5 ovarian, in the test on RPMI-8226 leukemia and with SF-295 CNS was over 100 µM throughout. Also, the TGI in the test with SK-MEL-5 melanoma, with SNB-75 CNS and in the test with SR leukemia was over 100 µM throughout.

Regarding `NC(=O)C1CCN(Cc2c(Cl)c(Cl)c(CN3CCC(C(N)=O)CC3)c(Cl)c2Cl)CC1`, the TGI was over 100 µM in the test on COLO 205 colon; over 100 µM with K-562 leukemia; over 100 µM in the test on OVCAR-3 ovarian; over 100 µM with OVCAR-5 ovarian; over 100 µM with RPMI-8226 leukemia; 75.3 µM in the test on SF-295 CNS. Further, the values for the TGI in the test with SK-MEL-5 melanoma, with SNB-75 CNS and in the test on SR leukemia were over 100 µM, 63.6 µM and over 100 µM, respectively.

For the molecule `COc1ccc(C2C=C(c3ccc(C)cc3)N(c3ccc(OC)cc3[N+](=O)[O-])C3C(=O)OC(=O)C23)c(OC)c1` (stereo not drawn), the TGI was over 100 µM with COLO 205 colon; over 100 µM in the test on K-562 leukemia; 59 µM in the test with OVCAR-3 ovarian; over 100 µM in the test with OVCAR-5 ovarian; 56.5 µM in the test with RPMI-8226 leukemia; over 100 µM with SF-295 CNS. The figures for the TGI with SK-MEL-5 melanoma, in the test with SNB-75 CNS and with SR leukemia were over 100 µM, 75.9 µM and 61 µM, respectively.

Turning to `O=C1C=CC(=O)c2c(O)c(N3CCC[C@@H]3CO)c(Cl)c(O)c21`, the TGI in the test with COLO 205 colon was 2.88 µM; in the test on K-562 leukemia, 2.22 µM; in the test on OVCAR-3 ovarian, 3.08 µM; with OVCAR-5 ovarian, 3.08 µM; in the test on RPMI-8226 leukemia, 1.69 µM; in the test with SF-295 CNS, 3.25 µM. The TGI with SK-MEL-5 melanoma came to 2.28 µM; in the test with SNB-75 CNS, 3.12 µM; with SR leukemia it was 4.88 µM.

Turning to `C/C(=C\CSCC(N)C(=O)O)CC/C=C(\C)CNc1ccccc1` (stereo not drawn), the TGI in the test with COLO 205 colon, in the test on K-562 leukemia, in the test on OVCAR-3 ovarian, in the test with OVCAR-5 ovarian, with RPMI-8226 leukemia and in the test with SF-295 CNS was over 100 µM each time. The TGI with SK-MEL-5 melanoma, in the test on SNB-75 CNS and in the test with SR leukemia was over 100 µM throughout.
